Test results from publication PMC6559721 (Biochemistry, 2017).

Target: BthII1283 (Burkholderia thailandensis, UniProt Q2T5S0)

SMILES: Cn1c(=O)[nH]c2nncnc2c1=O [1-DMT]
- HPLC and HRMS of methylation product: Reumycin (1-DMT) is converted to a single product with an identical retention time
